Like-named read-outs stand apart in the source and are kept apart here.
How the values were obtained:
Format in all cases: biochemical
[1] = target: T1, human delta opioid receptor (Homo sapiens, UniProt P41143); assay: Inhibition of agonist (DPDPE) stimulated [35S]GTPγS binding, apparent affinity (Ke)
T1 construct: expressed in transfected cells; host or cells: CHO cells (membrane homogenates)
Description: (§1) Determination of apparent affinity (Ke). The ability of a single concentration of test compound to shift an agonist dose response curve to the right was used to determine its Ke. Agonist activity was determined using [^35S]GTP-γ-S binding in CHO cell membrane homogenates expressing either the human mu, kappa or delta opioid receptor. The subtype selective agonists (D-Ala^2, MePhe^4, Gly-ol^5)enkephalin (DAMGO, mu receptor), D-Pen2,D-Pen5]-enkephalin (DPDPE, delta receptor) or U69,593 (kappa receptor) were run as appropriate. The assays were run in triplicate in 1.4 mL polypropylene tubes (Matrix Technologies, Hudson, N.H.) in 96-well format. Each assay tube contained membrane homogenate, one of seven concentrations of agonist or agonist+test compound, 0.1 nM [^35S]GTP-γ-S and 10 μM GDP in a 50 mM HEPES buffer (pH 7.4). Basal [^35S]GTP-γ-S binding was determined in samples without agonist or test compound. All samples were incubated at room temperature for one hour after which bound radioligand was separated from free via rapid vacuum filtration over GF-B filters with a Brandel Scientific (Gaithersburg, Md.) 96-well harvester. Bound radioactivity was determined with a TopCount 12-detector instrument (Packard Instruments) using standard scintillation counting techniques. The binding data from each assay plate were normalized to basal binding prior to analysis. The EC50s were calculated from a three-parameter logistic curve fit to the data with Prism (version 3.0, GraphPad Software, Inc., San Diego, Calif.).

human mu opioid receptor = target: T2, human mu opioid receptor (Homo sapiens, UniProt P35372); assay: Inhibition of agonist (DAMGO) stimulated [35S]GTPγS binding, apparent affinity (Ke)
T2 construct: expressed in transfected cells; host or cells: CHO cells (membrane homogenates)
Description: as §1

[2] = target: T3, human kappa opioid receptor (Homo sapiens, UniProt P41145); assay: Inhibition of agonist (U69,593) stimulated [35S]GTPγS binding, apparent affinity (Ke); conditions: for δ/κ / μ/κ: ratio of Ke values; for δ/κ: δ over κ; for μ/κ: μ over κ
T3 construct: expressed in transfected cells; host or cells: CHO cells (membrane homogenates)
Description: as §1

[3] = cloned human μ receptor, CHO cell membrane homogenates, agonist DAMGO, 10 μM GDP, mean ± SE, read-out: μ, DAMGO Ke
[4] = cloned human κ receptor, CHO cell membrane homogenates, agonist U69,593, 10 μM GDP, mean ± SE, read-out: κ, U69,593 Ke
[5] = cloned human δ receptor, CHO cell membrane homogenates, agonist DPDPE, 10 μM GDP, mean ± SE
[6] = cloned human μ receptor, CHO cell membrane homogenates, agonist DAMGO, 10 μM GDP, mean ± SE
[7] = cloned human κ receptor, CHO cell membrane homogenates, agonist U69,593, 10 μM GDP, mean ± SE

T3 sequence (P41145 whole entry): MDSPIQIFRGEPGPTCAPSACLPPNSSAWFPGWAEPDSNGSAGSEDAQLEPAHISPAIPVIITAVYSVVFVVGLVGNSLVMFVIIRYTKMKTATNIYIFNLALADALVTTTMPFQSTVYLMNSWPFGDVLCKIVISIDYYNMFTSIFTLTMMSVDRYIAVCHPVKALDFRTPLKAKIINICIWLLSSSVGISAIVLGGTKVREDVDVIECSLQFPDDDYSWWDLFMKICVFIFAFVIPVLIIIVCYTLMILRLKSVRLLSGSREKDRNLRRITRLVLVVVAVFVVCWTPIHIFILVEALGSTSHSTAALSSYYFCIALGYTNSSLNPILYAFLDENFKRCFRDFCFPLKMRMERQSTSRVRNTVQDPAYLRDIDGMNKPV
T1 sequence (P41143 whole entry): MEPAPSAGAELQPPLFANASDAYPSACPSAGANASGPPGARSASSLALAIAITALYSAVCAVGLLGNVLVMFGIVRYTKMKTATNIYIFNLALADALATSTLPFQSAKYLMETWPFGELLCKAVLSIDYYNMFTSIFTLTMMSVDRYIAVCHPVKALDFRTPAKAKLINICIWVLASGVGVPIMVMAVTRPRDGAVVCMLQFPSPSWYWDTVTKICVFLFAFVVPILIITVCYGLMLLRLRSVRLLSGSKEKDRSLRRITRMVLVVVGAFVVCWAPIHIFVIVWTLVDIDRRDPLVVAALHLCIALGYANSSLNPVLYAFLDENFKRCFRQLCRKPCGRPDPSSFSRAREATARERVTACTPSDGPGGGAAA
T2 sequence (P35372 whole entry): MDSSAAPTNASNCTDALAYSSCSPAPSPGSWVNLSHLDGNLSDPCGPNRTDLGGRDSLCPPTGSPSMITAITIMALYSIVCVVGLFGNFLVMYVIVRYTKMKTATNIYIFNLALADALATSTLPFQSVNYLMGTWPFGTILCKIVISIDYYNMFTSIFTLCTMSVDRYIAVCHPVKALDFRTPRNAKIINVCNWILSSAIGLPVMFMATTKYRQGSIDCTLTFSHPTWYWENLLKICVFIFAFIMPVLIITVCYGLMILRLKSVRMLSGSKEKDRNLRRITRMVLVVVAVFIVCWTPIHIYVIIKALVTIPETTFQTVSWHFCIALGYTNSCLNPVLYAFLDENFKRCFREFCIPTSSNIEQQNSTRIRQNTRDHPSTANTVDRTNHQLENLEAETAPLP

Compound | Kb ([1]; cloned human δ receptor, CHO cell membrane homogenates, agonist DPDPE, 10 μM GDP, mean ± SE, read-out: δ, DPDPE Ke) [nM] | Kb (human mu opioid receptor) [nM] | Kb [2] [nM] | δ/κ [2] | μ/κ [2] | Kb [1] [nM] | Kb (human mu opioid receptor; [3]) [nM] | Kb [2, 4] [nM] | δ, DPDPE Ke [1, 5] [nM] | μ, DAMGO Ke (human mu opioid receptor; [6]) [nM] | κ, U69,593 Ke [2, 7] [nM]
CN1CCC2(c3cccc(O)c3)CCCCC2(C)C1 (centres unmarked) [6a, N-Methyl-4a-(3-hydroxyphenyl)-8a-methyloctahydroisoquinoline] | 477 ± 137 | 99.4 ± 28.3 | 3.37 ± 0.47 | 141 | 29 |  |  |  |  |  | 
CC12CCCCC1(c1cccc(O)c1)CCN(CCc1ccccc1)C2 (centres unmarked) [6b, N-Phenethyl-4a-(3′-hydroxyphenyl)-8a-methyloctahydroisoquinoline] |  |  |  | 7 | 0.3 | 18.9 ± 5.2 | 0.84 ± 0.22 | 2.84 ± 0.97 |  |  | 
CC12CCCCC1(c1cccc(O)c1)CCN(CCCc1ccccc1)C2 (centres unmarked) [6c, N-(3-Phenpropyl)-4a-(3-hydroxyphenyl)-8a-methyloctahydroisoquinoline] |  |  |  | 12 | 0.8 |  |  |  | 12.4 ± 2.9 | 0.80 ± 0.10 | 1.03 ± 0.14
CC12CCC(NC(=O)CCN3CCCCC3)CC1(c1cccc(O)c1)CCN(CCCc1ccccc1)C2 (centres unmarked) [6d, N-(4a-(3-Hydroxyphenyl)-8a-methyl-2-(3-phenylpropyl)octahydroisoquinolin-6-yl]-3-piperidin-1-yl-propionamide] |  |  |  | 46 | 154 | 12.3 ± 3.1 | 41.7 ± 7.8 | 0.27 ± 0.08 |  |  | 
CC12CCC(NC(=O)CCN3CCc4ccccc4C3)CC1(c1cccc(O)c1)CCN(CCCc1ccccc1)C2 (centres unmarked) [6e, 3-(3,4-Dihydro-1H-isoquinolin-2-yl)-N-(4a-(3-hydroxyphenyl)-8a-methyl-2-(3-phenylpropyl)octahydroisoquinolin-6-yl]propionamide] |  |  |  | 21 | 45 | 4.56 ± 1.2 | 9.82 ± 3.7 | 0.22 ± 0.02 |  |  | 
CC12CCC(NC(=O)C3(c4ccccc4)CCCC3)CC1(c1cccc(O)c1)CCN(CCCc1ccccc1)C2 (centres unmarked) [6f, 1-Phenylcyclopentanecarboxylic Acid [4a-(3-Hydroxyphenyl)-8a-methyl-2-(3-phenylpropyl)octahydroisoquinolin-6-yl]amide] |  |  |  | 3 | 0.8 | 6.46 ± 2.3 | 1.46 ± 0.15 | 1.93 ± 0.48 |  |  | 
CC12CCC(NC(=O)c3cc4ccccc4s3)CC1(c1cccc(O)c1)CCN(CCCc1ccccc1)C2 (centres unmarked) [6g] |  |  |  | 2 | 25 |  |  |  | 1.01 ± 0.22 | 11.3 ± 2.0 | 0.46 ± 0.13

Source: US7476679B2, “Octahydroisoquinoline compounds as opioid receptor modulators” (Research Triangle Institute, priority 2005, dated 2009)
